Assay results as given in US20040236110A1, “Substituted 3-pyridyl indoles and indazoles as c17,20 lyase inhibitors” (priority 2001, published 2004).

Compound: N#Cc1ccccc1-n1ccc2cc(-c3cccnc3)ccc21 [Example 58, 1-(2-Cyanophenyl)-5-(3-pyridyl)-1H-indole]
- melting point: 138 to 141 °C
